Among the data in BindingDB's records for doi:10.7270/Q2D798VP (Broad Institute, 2009) are EC50 values, retold here.

Some results are limits rather than exact numbers.

The assay has as its target T1, Zinc finger protein mex-5 (Caenorhabditis elegans, UniProt Q9XUB2).
T1 sequence (Q9XUB2 whole entry): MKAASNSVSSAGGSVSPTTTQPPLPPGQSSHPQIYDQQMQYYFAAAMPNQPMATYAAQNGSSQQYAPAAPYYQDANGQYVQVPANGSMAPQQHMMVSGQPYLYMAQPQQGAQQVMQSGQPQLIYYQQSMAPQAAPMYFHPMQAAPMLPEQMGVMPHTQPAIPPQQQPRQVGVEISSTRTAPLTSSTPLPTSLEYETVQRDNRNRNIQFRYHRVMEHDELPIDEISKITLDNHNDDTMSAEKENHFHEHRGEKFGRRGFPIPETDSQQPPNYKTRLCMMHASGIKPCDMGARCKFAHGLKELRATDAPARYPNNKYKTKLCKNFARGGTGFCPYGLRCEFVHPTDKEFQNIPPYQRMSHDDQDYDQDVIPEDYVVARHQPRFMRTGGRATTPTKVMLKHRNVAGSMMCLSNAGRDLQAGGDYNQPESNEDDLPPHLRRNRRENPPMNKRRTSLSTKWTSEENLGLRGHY
The experiment in a line: potency of MEX-5 RNA-binding blockers – biochemical, C. elegans, fluorescence polarization, dose response (AID 1960). Background: In fluorescence polarisation assays a small probe gives low polarisation when free and higher when bound to something large.
The EC50 is the midpoint of the concentration-response curve. A higher EC50 goes with lower potency in that assay. The molecule `CC1=C(C#N)C(=O)N(C)C(=O)C1=CNNc1ccc(F)cc1` [MLS000702698] yielded an EC50 of more than 300 µM. The result for `O=C(c1ccccc1)[C@@H]1c2c(c(O)n(-c3ccc(F)cc3)c2O)C2CCCN21` (stereo partly drawn) [MLS000769629] reads 40.9 µM; that for `O=C(O)c1ccccc1N=NCc1c(Sc2nnnn2-c2ccccc2)nc2ccccn2c1=O` [MLS000775267], 116 µM. The result for `CCCCOC(=O)c1ccc(NN=C2C(=O)NC(=O)C(C#N)=C2C)cc1` [MLS000778379] reads more than 300 µM. The value for `COc1cc(C2C3=C(CC(C)(C)CC3=O)OC(=N)C2C#N)ccc1OCCN1CCOCC1` (stereo not drawn) [MLS000779948] was more than 300 µM. For the molecule `C=c1c(C(=O)OC)c(O)c(=Cc2ccco2)n1-c1ccccc1` [MLS000780287], it took 5.06 µM to reach a half-maximal effect (EC50). The value for `COc1ccc(C(C)N=Nc2nc3ccccc3nc2C)cc1OC` (stereo not drawn) [MLS001029936] was 66.5 µM; that for `CC1(C)c2[nH]c3ccccc3c2Cc2c(O)n(-c3ccc(F)cc3F)c(=O)n21` [MLS001065879] was 46.8 µM; that for `O=C(/C=C/c1ccco1)NCC(=O)NNC1=c2ccccc2=NC1=O` [MLS001075666] was 5.49 µM. The result for `O=C1N=C(O)C(C2=c3cc([N+](=O)[O-])ccc3=NC2=O)S1` (stereo not drawn) [MLS001163276] reads 21.5 µM. Turning to `CCOC(=O)C1=C(C)N=c2sc(=Cc3ccc(OCC(=O)O)cc3)c(=O)n2C1c1ccc(OC)cc1OC` (stereo not drawn) [MLS001179101], the EC50 was found to be 60.9 µM. The result for `N#CC1C(=N)OC2=C(C(=O)CCC2)C1c1cc2c(cc1Cl)OCO2` (stereo not drawn) [MLS001183950] reads more than 300 µM; that for `Cc1cc(=O)[nH]c(N=NCc2ccc(O)c(O)c2)n1` [MLS001194906], 125 µM; that for `COc1ccc(N2C(=O)NC(=O)C(=Cc3cn(C)c4ccccc34)C2=O)cc1` [MLS001196573], 1.15 µM. The result for `COc1ccc(OC)c(N2C(=O)C(=Cc3ccco3)C(=O)NC2=S)c1` [MLS001197216] reads 10.8 µM; that for `Cc1ccccc1NN=C1C(=O)N(C)c2ccccc21` [MLS001203477], more than 300 µM. Consider `COc1ccc(N2C(=O)C(=Cc3ccco3)C(=O)NC2=S)cc1` [MLS001204507], for which the EC50 was determined as 3.9 µM. The value for `CCOc1ccc(N2C(=O)C(=Cc3ccco3)C(=O)NC2=S)cc1` [MLS001205052] was 178 µM.

`O=[N+]([O-])c1cc/c(=N\c2ccccc2O)c2no[nH]c1-2` [MLS001206694] displayed a half-maximal effective concentration (EC50) of 28.2 µM. The result for `COc1cc2c(cc1C1C3=C(CC(C)(C)CC3=O)OC(=N)C1C#N)OCO2` (stereo not drawn) [MLS001208406] reads more than 300 µM.

With `O=C1C([N+](=O)[O-])=CC(Cl)=CC1/C=N/NC(=O)C(O)(c1ccccc1)c1ccccc1` (stereo not drawn) [N''''-[(E)-(3-chloro-5-nitro-6-oxocyclohexa-2,4-dien-1-ylidene)methyl]-2-hydroxy-2,2-diphenylacetohydrazide], a half-maximal response (EC50) required 40.2 µM. The result for `O=C(NN=Cc1c(O)n(-c2ccccc2)c(=S)[nH]c1=O)c1ccc(O)cc1` [N'-[(1Z)-(4,6-dioxo-1-phenyl-2-thioxohexahydropyrimidin-5-yl)methylene]-4-hydroxybenzohydrazide] reads 63.7 µM; that for `O=C(N/N=C/C1C=C(Cl)C=C([N+](=O)[O-])C1=O)c1ccc2c(c1)OCO2` (stereo not drawn) [N'-[(E)-(3-chloranyl-5-nitro-6-oxidanylidene-cyclohexa-2,4-dien-1-ylidene)methyl]-1,3-benzodioxole-5-carbohydrazide], 241 µM.

`COc1cccc(C=NNC(=O)c2ccc(=O)[nH]n2)c1O` [N'-[(E)-(5-methoxy-6-oxocyclohexa-2,4-dien-1-ylidene)methyl]-6-oxo-1H-pyridazine-3-carbohydrazide] had an EC50 of 12.6 µM. The result for `O=C1NC(=O)N(CCc2ccc(F)cc2)C(=O)C1=CNNC(=O)c1ccccc1` [N'-[(E)-[1-[2-(4-fluorophenyl)ethyl]-2,4,6-trioxo-1,3-diazinan-5-ylidene]methyl]benzohydrazide] reads more than 300 µM. The result for `O=C1NC(=O)N(CCc2ccccc2)C(=O)C1=CNNC(=O)c1ccncc1` [N'-[(E)-[2,4,6-trioxo-1-(2-phenylethyl)-1,3-diazinan-5-ylidene]methyl]-4-pyridinecarbohydrazide] reads more than 300 µM; that for `C/N=c1\ccc2nc3ccccc3n(C)c-2c1` [N,10-dimethyl-2-phenazin-10-iumamine;perchlorate], 14.8 µM; that for `O=[N+]([O-])c1ccc(/N=N/c2ncc[nH]2)cc1` [N-(imidazol-2-ylideneamino)-4-nitroaniline], 20.7 µM. `COc1ccc(N=C(C(=C(Cl)C(Cl)Cl)[N+](=O)[O-])n2nnc3ccccc32)cc1` [N-[(1E)-1-(1-benzotriazolyl)-3,4,4-trichloro-2-nitrobuta-1,3-dienyl]-4-methoxyaniline] registered an EC50 of 49.1 µM.

Take `CN(C)c1ccc(N=Cc2nc(-c3ccccc3)oc2O)cc1` [SMR000009577]: the concentration for a half-maximal effect (EC50) was determined as 5.22 µM. The result for `COc1cccc(C2C3=C(CC(c4ccco4)CC3=O)OC(=N)C2C#N)c1OCc1ccc(F)cc1` (stereo not drawn) [SMR000021029] reads more than 300 µM; that for `CCN(CC)c1ccc(C=NC(C#N)C(=N)C#N)cc1` (stereo not drawn) [SMR000023871], 114 µM. The result for `COc1ccc(C2CC(c3ccc(Br)s3)=Nc3ncnn32)cc1OC` (stereo not drawn) [SMR000032927] reads 6.36 µM. The result for `Cc1ccc(C2C3CN(C(C)C)CCC3=C(C#N)C(=N)C2(C#N)C#N)cc1` (stereo not drawn) [SMR000034220] reads 8.29 µM; that for `Cc1cc(O)c(C(C)C)cc1Nc1csc(=O)[nH]1` [SMR000034713], 34.6 µM; that for `CC1=NC(c2ccccc2)C(C#N)(C#N)C(C#N)(C#N)C1` (stereo not drawn) [SMR000037705], 2.46 µM. `COc1cc(OC)c(C2C3=C(CC(C)(C)CC3=O)OC(=N)C2C#N)cc1OC` (stereo not drawn) [SMR000054706] came in with an EC50 of more than 300 µM. The value for `C=c1[nH]n(-c2cccc(C(=O)O)c2)c(=O)c1=CC=Cc1ccco1` [SMR000113614] was 23.7 µM.

In turn, `COc1ccc(C=C2CCCC(C(=O)C(F)(F)F)C2=O)cc1` (stereo not drawn) [SMR000142699] returned a concentration giving a half-maximal response (EC50) of 41.4 µM. The value for `Oc1ccc2ccccc2c1CN=Nc1nnc(-c2ncc[nH]2)c2ccccc12` [SMR000151639] was 2.45 µM.

`C(=NNC(=Nc1ccccc1)c1ccccn1)c1ccccn1` [SMR000174637] showed an EC50 of 94.4 µM.

With `CN1CCC2(CC1)C(C#N)C(=N)NC(=S)C2C#N` (stereo not drawn) [SMR000211480], a half-maximal effect (EC50) was put at 8.53 µM. The result for `O=C(c1ccccc1)c1[nH]n(-c2ccccc2)c2c(O)n(-c3ccccc3Cl)c(=O)c1-2` [SMR000212371] reads more than 300 µM; that for `COc1ccc(N=CCC(=O)c2ccc(C)cc2)cc1OC` [SMR000269732], more than 300 µM. With `CCCCN1C(=O)/C(=C2/Sc3ccccc3N2C)SC1=Nc1nnc[nH]1` [SMR000282142], the response was half-maximal at 39.1 µM (EC50). The value for `COC(=O)c1ccc(-n2c(C)cc(CN=Nc3nc(C)cc(=O)[nH]3)c2C)cc1` [SMR000364461] was more than 300 µM.

`O=C(N/N=C/C1C=C(Cl)C=C([N+](=O)[O-])C1=O)c1ccccc1NS(=O)(=O)c1cccs1` (stereo not drawn) [SMR000364876]: a half-maximal effect (EC50) was put at 1.56 µM. The value for `Cc1cc(C(=O)NN=CC2C=C(Cl)C=C([N+](=O)[O-])C2=O)[nH]n1` (stereo not drawn) [SMR000414694] was more than 300 µM; that for `O=C1NC(=O)N(CCc2ccccc2)C(=O)C1=CNNC(=O)c1ccccc1` [SMR000433912] was 150 µM; that for `Cn1c(=O)[nH]c(=O)c2c1nc(N=NC=C(Br)Cc1ccccc1)n2CCO` [SMR000436442] was 55.5 µM. The result for `COc1ccccc1N1C(=O)NC(=O)C(=Cc2c[nH]c3ccccc23)C1=O` [SMR000495900] reads more than 300 µM; that for `Cc1cc(-c2ccccc2)nc(N=NCc2ccc(O)cc2O)n1` [SMR000513422], 54 µM; that for `Cc1[nH]n(C(N)=S)c(=O)c1N=Nc1c(Cl)cc([N+](=O)[O-])cc1Cl` [SMR000514008], 85.9 µM. The result for `CC1(C)CC(=O)C2=C(C1)OC(=N)C(C#N)C2c1ccc2c(c1)OCO2` (stereo not drawn) [SMR000514966] reads more than 300 µM; that for `O=C1C=CC(/C=C/c2nc(O)c([N+](=O)[O-])c(=O)[nH]2)C=C1O` (stereo not drawn) [SMR000524347], 179 µM; that for `c1ccc(C2=NNC(c3ccccn3)N=N2)nc1` (stereo not drawn) [SMR000549436], 22.4 µM. For `CN(C)c1ccc(C=NN(CCC(=O)NC(C)(C)C)C2=NS(=O)(=O)c3ccccc32)cc1` [SMR000556213], the EC50 was 36.3 µM. The value for `O=C1NC(=O)N(c2ccc(F)cc2)C(=O)C1=Cc1c[nH]c2ccccc12` [SMR000556295] was more than 300 µM. The result for `Cn1cc(C=C2C(=O)NC(=O)N(c3ccccc3)C2=O)c2ccccc21` [SMR000559087] reads 4.34 µM; that for `O=C1N=C(N2C=CC(c3ccncc3)C=C2)C(=CN=NC(=O)c2ccccc2O)S1` [SMR000646350], 10.7 µM; that for `CN(C)[C@@H]1C(=O)C(C(N)=O)C(=O)[C@@]2(O)C(=O)C3C(=O)c4c(O)cccc4[C@@](C)(O)C3C(O)C12` (stereo partly drawn) [SMR000875333], 20.5 µM. The value for `C=CC(=O)N1CCCC(n2nc(-c3ccc(Oc4ccccc4)cc3)c3c(N)ncnc32)C1` (stereo not drawn) [US8497277, 4] was more than 300 µM; that for `COC(=O)Cn1cc(C=C2C(=O)NC(=O)N(c3ccccc3)C2=O)c2ccccc21` [[3-(2,4,6-Trioxo-1-phenyl-tetrahydro-pyrimidin-5-ylidenemethyl)-indol-1-yl]-acetic acid methyl ester] was 143 µM.
